From EP4796561A1, “ANTI-SYNAPTOTAGMIN 2 ANTIBODY” (Jiksak Bioengineering, Inc., priority 2023, dated 2025)
Where a SMILES comes first, the peptide text is derived from it. [ ]: non-standard residue; d: D form. The star is where a group is joined. Dolaproine = CO[C@@H]([C@@H]1CCCN1)[C@@H](C)C(=O)O; Dil = CC[C@H](C)[C@H](NC)[C@@H](CC(=O)O)OC; X1 = C[C@@H](N*)[C@@H](O)c1ccccc1; NMeV = CN[C@H](C(=O)O)C(C)C

Experiments:
[1] = test system: Human iPS-derived motor neuron; experiment: Pharmacological effect of antibody-MMAE conjugates: axonal amount (Tuj1 staining) in motor neuron neurospheres with LRRTM2 bead-induced presynapse; type: cell-based; settings: normalized to Cont. IgG-MMAE set to 100%; 1µg/mL, 30 minutes with 100µM 4-aminopyridine, then 24 hours culture; Tuj1 brightness
Method: Human iPS-derived motor neuron (40HU-005-2M; ixcells biotechnologies) was thawed using Dead Cell Removal kit (Veritas) according to the protocol of the kit. The cells after thawing were plated in 96-well plates (V-bottom) at a density of 2×10^4 cells/well and cultured in the motor neuron culture medium (Motor Neuron Maintenance Medium; ixcells biotechnologies) for 1 week to prepare neurospheres. The prepared neurospheres were selected based on size and roundness, and those satisfying this criterion were used in the subsequent experiments.
After coating a 96-well EZVIEW (registered trademark) culture plate LB (AGC Technoglass Co., Ltd.) with poly-D-lysine and Geltrex (registered trademark) Matrix (Thermo Fisher Scientific), the selected neurospheres were then plated and cultured for 20 days. As the medium, the above-described motor neuron culture medium was used first, and medium change with the same medium was performed on the second day of culture. Thereafter, medium was changed three times per week using neuronal medium (Neurobasal plus medium (B27 plus supplement (Thermo Fisher Scientific), 20ng/mL BDNF, 20ng/mL GDNF, and penicillin-streptomycin were added)). Each medium change was performed at 50 µL/well.
Microbeads coated with the extracellular domain of LRRTM2 (active beads) were prepared as disclosed in WO2021/006075. […]

[2] = target: human Synaptotagmin 2 expressed on HEK293T cells (human) (UniProt Q8N9I0); experiment: flow cytometry on HEK293T cells expressing human SYT2 at 0.01 µg/mL antibody; reference is the polyclonal rabbit anti-SYT2 N-terminal antibody (Synaptic Systems 105 223)
Chain of UniProt Q8N9I0 (Q8N9I0 whole entry): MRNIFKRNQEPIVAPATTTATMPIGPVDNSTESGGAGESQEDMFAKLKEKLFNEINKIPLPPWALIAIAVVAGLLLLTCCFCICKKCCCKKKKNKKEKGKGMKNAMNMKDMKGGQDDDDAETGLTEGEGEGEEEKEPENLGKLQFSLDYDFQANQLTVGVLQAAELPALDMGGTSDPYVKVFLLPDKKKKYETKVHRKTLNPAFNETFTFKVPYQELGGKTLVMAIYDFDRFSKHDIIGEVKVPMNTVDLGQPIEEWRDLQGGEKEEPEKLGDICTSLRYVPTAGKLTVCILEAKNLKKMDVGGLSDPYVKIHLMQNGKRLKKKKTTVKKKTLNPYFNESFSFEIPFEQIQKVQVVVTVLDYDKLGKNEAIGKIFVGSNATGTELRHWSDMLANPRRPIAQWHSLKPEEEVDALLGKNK

| fluorescence intensity relative to the control polyclonal antibody [2] [fold] | Molecule | relative amount of axon [1] |
| --- | --- | --- |
|  | CC[C@H](C)[C@@H]([C@@H](CC(=O)N1CCC[C@H]1[C@H](OC)[C@@H](C)C(=O)N[C@H](C)[C@@H](O)c1ccccc1)OC)N(C)C(=O)[C@@H](NC(=O)[C@@H](NC)C(C)C)C(C)C [MMAE, monomethyl auristatin E] (H-[NMeV]V[Dil][Dolaproine]-X1) | no significant differences |
| 2 | monoclonal antibody according to the present invention (anti-Synaptotagmin 2 intravesicular domain (N-terminal) monoclonal antibody) (antibody, V domains shown) VH: EVQLQQSGAELVRPGASVKLSCTASGFNIKDDYVHWVKQRPEQGLEWIGWIDPENGDTEYASKFQGKATITADASSNAAYLQLSSLTSEDTAAYYCTTDYYNNPFAYWGQGTLVTVSA VL: QIVLTQSPAIMSASPGEKVTITCSASSSVSYMHWFQQKPGTSPKLWIYSTSKLASGVPVRFSGSGSGTSYSLTISRMEAEDAATYYCQQRSSYPFTFGSGTKLEIK |  |
